Like-named read-outs stand apart in the source and are kept apart here.
Experiments:
[1] = physchem; conditions: pH 7.4
[2] = cited from earlier work
[3] = pH 7.4
[4] = shake flask, pH 7.4, average literature value

C[C@]12C=CC(=O)C=C1CC[C@@H]1[C@@H]2[C@@H](O)C[C@@]2(C)[C@H]1CC[C@]2(O)C(=O)CO [Prednisolone]
logD at 90 min [1]: 1.53 | Literature LogD [2, 4]: 1.45

COc1ccc2c(c1)c(CC(=O)O)c(C)n2C(=O)c1ccc(Cl)cc1 [Indomethacin]
logD at 90 min [1]: 0.87 | Literature LogD [2, 4]: 0.76

COCCOC(=O)C1=C(C)NC(C)=C(C(=O)OC(C)C)C1c1cccc([N+](=O)[O-])c1 (centres unmarked) [Nimodipine]
logD at 90 min [1]: 3.95 | Literature LogD [2, 4]: 4.18

CCC1(c2ccccc2)C(=O)NCNC1=O [Primidone]
logD at 90 min [1]: 0.74 | Literature LogD [2, 4]: 0.91

COc1ccc(Cl)cc1C(=O)NCCc1ccc(S(=O)(=O)NC(=O)NC2CCCCC2)cc1 [Glyburide]
Literature LogD [2, 4]: 2.19

C=CCc1ccccc1OCC(O)CNC(C)C (centres unmarked) [Alprenolol]
logD at 90 min [1]: 1.03 | Literature LogD [2, 4]: 0.88

CN(C)CCCN1c2ccccc2CCc2ccc(Cl)cc21 [Clomipramine]
logD at 90 min [1]: 3.46 | Literature LogD [2, 4]: 3.28

O=C(O)Cc1ccccc1Nc1c(Cl)cccc1Cl [Diclofenac]
logD at 90 min [1]: 1.12 | Literature LogD [2, 4]: 1.14

C[C@@H]1C[C@H]2[C@@H]3CCC4=CC(=O)C=C[C@]4(C)[C@@]3(F)[C@@H](O)C[C@]2(C)[C@@]1(O)C(=O)CO [Dexamethason]
CAMDIS FBP LogD [3]: 1.82 | Literature LogD ([2]; pH 7.4): 1.82

C[C@]12CC[C@H]3[C@@H](CCC4=CC(=O)CC[C@@]43C)[C@@H]1CC[C@@H]2O [Testosterone]
Literature LogD ([2]; pH 7.4): 3.23

CC(=O)Nc1ccc(O)cc1 [Paracetamol]
Literature LogD [2, 4]: 0.3

CCCC(C)(COC(N)=O)COC(N)=O [Meprobamate]
logD [1]: 0.76 | Literature LogD ([2]; pH 7.4): 0.7

Cc1ncc([N+](=O)[O-])n1CCO [Metronidazole]
logD at 90 min [1]: -0.22 | Literature LogD [2, 4]: −0.07

CC(=O)CC(c1ccccc1)c1c(O)c2ccccc2oc1=O (centres unmarked) [Warfarin]
logD [1]: 0.87 | Literature LogD ([2]; pH 7.4): 1.12

CC(CCc1ccccc1)NCC(O)c1ccc(O)c(C(N)=O)c1 (centres unmarked) [Labetalol]
logD at 90 min [1]: 1.08 | Literature LogD [2, 4]: 1.09

CN(C)CCCN1c2ccccc2Sc2ccc(Cl)cc21 [Chlorpromazine]
logD at 90 min [1]: 3.26 | Literature LogD [2, 4]: 3.16

CC(C)Cc1ccc(C(C)C(=O)O)cc1 (centres unmarked) [Ibuprofen]
logD at 90 min [1]: 0.97 | Literature LogD [2, 4]: 1.27

CN1CCCCC1CCN1c2ccccc2Sc2ccc([S+](C)[O-])cc21 (centres unmarked) [Mesoridazine]
logD at 90 min [1]: 1.74 | Literature LogD [2, 4]: 1.81

CCCSc1ccc2nc(NC(=O)OC)[nH]c2c1 [Albendazole]
logD at 90 min [1]: 3.41 | Literature LogD [2, 4]: 3.29

NS(=O)(=O)c1cc(C2(O)NC(=O)c3ccccc32)ccc1Cl (centres unmarked) [Chlorthalidone]
logD at 90 min [1]: 0.9

CC(C(=O)O)c1cccc(C(=O)c2ccccc2)c1 (centres unmarked) [Ketoprofen]
Literature LogD [2, 4]: −0.23

Cn1c(=O)c2[nH]cnc2n(C)c1=O [Theophyline]
CAMDIS FBP LogD [3]: −0.16 | Literature LogD ([2]; pH 7.4): −0.02

CC(C(=O)O)c1ccc(-c2ccccc2)c(F)c1 (centres unmarked) [Flurbiprofen]
logD at 90 min [1]: 0.8 | Literature LogD [2, 4]: 0.91

O=C1NC(=O)C(c2ccccc2)(c2ccccc2)N1 [Phenytoin]
logD at 90 min [1]: 2.32 | Literature LogD [2, 4]: 2.23

CC(=O)[C@H]1CC[C@H]2[C@@H]3CCC4=CC(=O)CC[C@]4(C)[C@H]3CC[C@]12C [Progesterone]
Literature LogD ([2]; pH 7.4): 3.76

NC(=O)N1c2ccccc2C=Cc2ccccc21 [Carbamazepine]
logD at 90 min [1]: 1.59

COC1=CC(=O)C[C@@H](C)[C@]12Oc1c(Cl)c(OC)cc(OC)c1C2=O [Griseofulvin]
logD at 90 min [1]: 2.19

CN(C)CCC=C1c2ccccc2CCc2ccccc21 [Amitriptyline]
logD at 90 min [1]: 2.87 | Literature LogD [2, 4]: 2.79

COCCc1ccc(OCC(O)CNC(C)C)cc1 (centres unmarked) [Metoprolol]
logD at 90 min [1]: 0.06 | Literature LogD [2, 4]: −0.17
